Laboratory results reported in ChEMBL document CHEMBL1201862, “PubChem BioAssay data set” (2004).
Where a name gives a salt, the structure may show the parent alone. Activity calls are given as the source filed them. For most assays here, no stated cut-off is given here; in the data, actives have a measured IC50 and inactives only a lower limit.

Columns and labels:
Type in all cases: functional
[1] = molecular target: T1, Sentrin-specific protease 6 (Homo sapiens, UniProt Q9GZR1);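 further: Luminescence-based dose-response confirmatory assay of SENP6 inhibition, following up an ultra-high-throughput screen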
T1 sequence (Q9GZR1 whole entry): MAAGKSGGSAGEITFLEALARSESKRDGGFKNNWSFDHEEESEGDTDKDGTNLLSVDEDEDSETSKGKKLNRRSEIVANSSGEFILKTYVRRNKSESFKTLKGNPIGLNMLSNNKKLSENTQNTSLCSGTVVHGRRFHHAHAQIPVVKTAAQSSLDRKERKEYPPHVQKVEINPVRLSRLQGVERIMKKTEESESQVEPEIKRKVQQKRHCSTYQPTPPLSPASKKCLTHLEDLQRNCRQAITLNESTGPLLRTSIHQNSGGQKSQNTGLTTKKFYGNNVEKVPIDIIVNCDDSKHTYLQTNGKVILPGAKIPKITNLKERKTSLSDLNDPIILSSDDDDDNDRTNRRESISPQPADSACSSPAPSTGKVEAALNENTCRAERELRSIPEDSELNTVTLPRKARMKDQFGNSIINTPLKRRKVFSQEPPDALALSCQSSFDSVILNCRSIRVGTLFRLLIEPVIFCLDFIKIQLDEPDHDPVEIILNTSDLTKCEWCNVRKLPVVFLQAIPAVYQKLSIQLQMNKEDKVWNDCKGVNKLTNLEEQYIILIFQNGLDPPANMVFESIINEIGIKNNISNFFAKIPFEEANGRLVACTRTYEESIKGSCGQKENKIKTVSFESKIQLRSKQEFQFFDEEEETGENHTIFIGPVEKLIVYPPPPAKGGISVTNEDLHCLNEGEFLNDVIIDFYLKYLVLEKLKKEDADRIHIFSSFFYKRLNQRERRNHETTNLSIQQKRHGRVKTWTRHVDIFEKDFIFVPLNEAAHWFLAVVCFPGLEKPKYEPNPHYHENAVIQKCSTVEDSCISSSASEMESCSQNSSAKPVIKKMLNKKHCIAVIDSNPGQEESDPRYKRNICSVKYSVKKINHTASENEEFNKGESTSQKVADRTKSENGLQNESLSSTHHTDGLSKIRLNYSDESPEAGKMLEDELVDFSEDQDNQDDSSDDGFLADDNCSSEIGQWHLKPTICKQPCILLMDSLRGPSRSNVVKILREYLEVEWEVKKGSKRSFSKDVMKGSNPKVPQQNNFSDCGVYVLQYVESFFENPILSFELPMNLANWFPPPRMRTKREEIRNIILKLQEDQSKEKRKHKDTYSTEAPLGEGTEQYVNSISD

[2] = molecular target: T2, Sentrin-specific protease 7 (Homo sapiens, UniProt Q9BQF6);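 further: Luminescence-based dose-response confirmation of ultra-high-throughput screening hits, measuring inhibition of SENP7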
T2 sequence (Q9BQF6 whole entry): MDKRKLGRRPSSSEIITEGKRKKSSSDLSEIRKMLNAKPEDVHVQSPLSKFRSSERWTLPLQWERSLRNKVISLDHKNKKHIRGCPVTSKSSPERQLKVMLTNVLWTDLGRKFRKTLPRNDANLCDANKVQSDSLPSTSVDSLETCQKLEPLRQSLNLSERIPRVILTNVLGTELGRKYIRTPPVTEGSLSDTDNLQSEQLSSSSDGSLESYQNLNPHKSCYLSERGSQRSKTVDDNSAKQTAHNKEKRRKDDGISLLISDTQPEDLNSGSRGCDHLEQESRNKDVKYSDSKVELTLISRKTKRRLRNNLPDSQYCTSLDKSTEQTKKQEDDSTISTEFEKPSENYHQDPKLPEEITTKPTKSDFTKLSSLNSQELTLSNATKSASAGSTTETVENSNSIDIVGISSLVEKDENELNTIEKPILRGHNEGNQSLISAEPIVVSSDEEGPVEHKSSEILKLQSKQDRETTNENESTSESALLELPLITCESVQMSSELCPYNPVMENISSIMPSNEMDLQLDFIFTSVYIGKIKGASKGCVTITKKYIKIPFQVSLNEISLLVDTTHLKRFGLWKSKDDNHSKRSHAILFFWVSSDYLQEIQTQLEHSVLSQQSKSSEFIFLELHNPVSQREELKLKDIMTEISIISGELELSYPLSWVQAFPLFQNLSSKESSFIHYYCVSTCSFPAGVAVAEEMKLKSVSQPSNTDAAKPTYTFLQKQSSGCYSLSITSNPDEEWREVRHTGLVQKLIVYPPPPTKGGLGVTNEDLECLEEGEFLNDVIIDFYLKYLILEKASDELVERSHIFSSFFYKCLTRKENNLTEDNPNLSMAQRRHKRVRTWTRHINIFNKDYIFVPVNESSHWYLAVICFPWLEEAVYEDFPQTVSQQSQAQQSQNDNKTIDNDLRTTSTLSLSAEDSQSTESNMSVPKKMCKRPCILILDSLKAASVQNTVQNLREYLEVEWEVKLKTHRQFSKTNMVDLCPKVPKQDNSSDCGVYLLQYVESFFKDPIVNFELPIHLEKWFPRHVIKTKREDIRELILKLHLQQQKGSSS

[3] = molecular target: T3, Short transient receptor potential channel 4 (Mus musculus, UniProt Q9QUQ5); experiment: mouse TRPC4 channel activators, dose response, cell-based, HEK293 TRPC4/mu-opioid, Fluo-4 calcium (AID 434937)
T3 sequence (Q9QUQ5 whole entry): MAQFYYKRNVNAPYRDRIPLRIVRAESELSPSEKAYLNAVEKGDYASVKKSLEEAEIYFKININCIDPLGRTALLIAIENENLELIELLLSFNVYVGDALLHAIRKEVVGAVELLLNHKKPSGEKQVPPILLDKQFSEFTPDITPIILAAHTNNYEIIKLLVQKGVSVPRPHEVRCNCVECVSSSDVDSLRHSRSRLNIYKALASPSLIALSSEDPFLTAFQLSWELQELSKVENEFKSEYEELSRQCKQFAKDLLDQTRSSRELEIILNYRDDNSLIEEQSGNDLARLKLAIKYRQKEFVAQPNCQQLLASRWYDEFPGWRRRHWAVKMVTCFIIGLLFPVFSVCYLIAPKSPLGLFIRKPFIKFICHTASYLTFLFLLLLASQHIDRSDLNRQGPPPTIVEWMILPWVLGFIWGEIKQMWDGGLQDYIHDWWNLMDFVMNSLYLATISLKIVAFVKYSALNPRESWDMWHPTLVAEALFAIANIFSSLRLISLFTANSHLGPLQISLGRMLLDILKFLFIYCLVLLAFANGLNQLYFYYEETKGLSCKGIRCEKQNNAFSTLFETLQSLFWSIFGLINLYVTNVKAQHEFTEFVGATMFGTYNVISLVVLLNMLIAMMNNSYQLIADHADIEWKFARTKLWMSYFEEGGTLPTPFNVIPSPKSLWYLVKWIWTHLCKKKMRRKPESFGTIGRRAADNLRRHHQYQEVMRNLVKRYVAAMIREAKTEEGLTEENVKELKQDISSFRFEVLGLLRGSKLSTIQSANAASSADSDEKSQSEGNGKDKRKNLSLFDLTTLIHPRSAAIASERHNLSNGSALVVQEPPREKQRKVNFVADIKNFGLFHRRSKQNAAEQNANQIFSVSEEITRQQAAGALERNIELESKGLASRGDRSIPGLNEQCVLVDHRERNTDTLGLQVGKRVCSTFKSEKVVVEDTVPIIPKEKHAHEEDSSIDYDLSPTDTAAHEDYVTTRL

| Structure (SMILES) | IC50 [1] | IC50 [2] | EC50 [3] |
| --- | --- | --- | --- |
| CCC(C)n1c(NC(=O)c2ccccc2)c(C#N)c2nc3ccccc3nc21 (stereo unspecified) | 0.984 µM (active) | 2.82 µM (active) |  |
| CCN1/C(=C\c2ccc3ccccc3[n+]2CC)Sc2cc(C)ccc21 |  |  | 4.73 µM (active) |
| O=C(CCl)Oc1ccc2occ(C(=O)c3cccs3)c2c1 | 30.7 µM (active) | 10.7 µM (active) |  |
| CC[C@@H](CO)NC(=O)[C@@H]1C=C2c3cccc4c3c(cn4C)C[C@H]2N(C)C1 [METHYSERGIDE MALEATE] |  |  | 1.5 µM (active) |
